Test results reported in ChEMBL document CHEMBL3244151, “9-hydroxy-1,2,3,4,5,6-hexahydro-1,5-methano-3-benzazocine derivatives as analgesics” (1977).

System: Mus musculus
Test: Analgesic activity in sc dosed albino dd mouse by tail pressure stimuli method
Type: functional

`Br.CN1C[C@@H]2Cc3ccc(O)cc3[C@@](C)(C2)C1` was tested, and the ED50 was 8.4 mg/kg.
In the case of `Br.C[C@H]1[C@H]2Cc3ccc(O)cc3[C@]1(C)CN(C)C2`, the ED50 is reported as 28 mg/kg.
Work on `Br.C[C@@H]1[C@H]2Cc3ccc(O)cc3[C@]1(C)CN(C)C2` yielded an ED50 of 32.8 mg/kg.
Compound `CN1C[C@@H]2Cc3ccccc3[C@@](C)(C2)C1.Cl` has an ED50 greater than 50 mg/kg.
`COc1ccc2c3c1O[C@H]1[C@@H](O)C=C[C@H]4[C@@H](C2)N(C)CC[C@@]341.COc1ccc2c3c1O[C@H]1[C@@H](O)C=C[C@H]4[C@@H](C2)N(C)CC[C@@]341.O.O=P(O)(O)O.O=P(O)(O)O` [CODEINE PHOSPHATE] was tested, and the ED50 was 9.2 mg/kg.
